Target: T1, human IKK-β (Homo sapiens, UniProt O14920)
T1 construct: A cDNA fragment encoding human IKK-β open reading frame was generated by PCR; His tag (from pcDNA3.1/His C); made in house; host or cells: Sf21 insect cells (baculovirus); substrate made in E. coli
T1 sequence (O14920 1-756): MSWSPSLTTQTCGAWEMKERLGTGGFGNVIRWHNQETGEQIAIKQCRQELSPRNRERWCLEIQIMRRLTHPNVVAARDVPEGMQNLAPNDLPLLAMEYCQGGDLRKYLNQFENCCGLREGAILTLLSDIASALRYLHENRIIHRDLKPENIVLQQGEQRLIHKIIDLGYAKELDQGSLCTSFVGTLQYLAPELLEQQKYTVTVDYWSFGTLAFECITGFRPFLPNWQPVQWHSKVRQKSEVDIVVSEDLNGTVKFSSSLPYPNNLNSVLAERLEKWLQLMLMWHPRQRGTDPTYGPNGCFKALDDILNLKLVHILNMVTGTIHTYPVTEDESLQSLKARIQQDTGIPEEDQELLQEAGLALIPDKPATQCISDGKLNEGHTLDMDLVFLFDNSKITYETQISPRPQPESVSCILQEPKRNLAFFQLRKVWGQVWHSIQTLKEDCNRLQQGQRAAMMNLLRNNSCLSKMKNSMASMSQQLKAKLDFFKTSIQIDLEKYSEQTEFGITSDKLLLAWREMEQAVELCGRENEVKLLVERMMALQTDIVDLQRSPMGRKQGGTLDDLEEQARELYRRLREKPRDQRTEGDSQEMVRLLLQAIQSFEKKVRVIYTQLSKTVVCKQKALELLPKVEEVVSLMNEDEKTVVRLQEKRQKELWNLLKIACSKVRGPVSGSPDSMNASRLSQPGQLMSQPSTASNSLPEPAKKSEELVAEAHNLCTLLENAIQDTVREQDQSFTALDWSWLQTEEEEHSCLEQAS
Test: IKK-β kinase inhibitory assay
Format: biochemical
Details: compounds as yielded by solid phase synthesis, purity about 40 to 90%, read-out: In vitro activity grade (In vitro IC50)
Method in brief: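 Radiometric read-out: streptavidin capture of 33P-labelled bio-GST-IκBα(1-54), 0.2 μM, after a 2 h room-temperature reaction started with ATP/[γ-33P]ATP. Enzyme was recombinant His-tagged human IKK-β expressed in Sf21 insect cells, used at 0.6 μg/ml in Tris-HCl pH 7.6/MgCl2 kinase buffer. Compounds added in 2.5% DMSO.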

Row | SMILES | IC50
1 | N#Cc1c(CCN)cc(-c2c(O)cccc2OCc2ccccc2)nc1N [Example 2-40] | < 500 nM
2 | C=CCOc1cccc(O)c1-c1cc(C2CCCNC2)c(C#N)c(N)n1 (stereo not shown) [Example 2-56] | < 500 nM
3 | N#Cc1c(C2CCCNC2)cc(-c2c(O)cccc2OCc2csc3ccc(Cl)cc23)nc1N (stereo not shown) [Example 2-47] | < 500 nM
4 | N#Cc1c(C2CCCNC2)cc(-c2c(O)cccc2OCc2ccccc2F)nc1N (stereo not shown) [Example 2-37] | < 500 nM
5 | CCOc1cccc(O)c1-c1cc(C2CCCNC2)c(C#N)c(N)n1 (stereo not shown) [Example 2-58] | < 500 nM
6 | COC(=O)c1ccc(COc2cccc(O)c2-c2cc(C3CCCNC3)c(C#N)c(N)n2)cc1 (stereo not shown) [Example 2-30] | < 500 nM
7 | Cc1ccccc1COc1cccc(O)c1-c1cc(C2CCCNC2)c(C#N)c(N)n1 (stereo not shown) [Example 2-06] | < 500 nM
8 | N#Cc1c(C2CCCNC2)cc(-c2c(O)cccc2OCc2ccc3ccccc3n2)nc1N (stereo not shown) [Example 2-45] | < 500 nM
9 | N#Cc1c(C2CCCNC2)cc(-c2c(O)cccc2OCc2cccnc2)nc1N (stereo not shown) [Example 2-43] | < 500 nM
10 | N#Cc1c(C2CCCNC2)cc(-c2c(O)cccc2OCc2ccc(C(F)(F)F)cc2)nc1N (stereo not shown) [Example 2-36] | < 500 nM
11 | N#Cc1c(C2CCNCC2)cc(-c2c(O)cccc2OCc2ccccc2)nc1N [Example 2-23] | < 500 nM
12 | CCCCCOc1cccc(O)c1-c1cc(C2CCCNC2)c(C#N)c(N)n1 (stereo not shown) [Example 2-60] | < 500 nM
13 | N#Cc1c(C2CCCNC2)cc(-c2c(O)cccc2OCc2ccccn2)nc1N (stereo not shown) [Example 2-42] | < 500 nM

Next, values leading:

Row | IC50 | SMILES
14 | < 500 nM | O=C1Nc2nc(-c3c(O)cccc3OCc3ccccc3)cc(C3CCNCC3)c2CO1 [Example 18-16]
15 | < 500 nM | O=C1Nc2nc(-c3c(O)cccc3OCC3CC3)cc(C3CCNCC3)c2CO1 [Example 18-13]
16 | < 500 nM | CN(C)C(=O)N1Cc2c(C3CCCNC3)cc(-c3c(O)cccc3OCC3CC3)nc2NC1=O (stereo not shown) [Example 24-08]
17 | < 500 nM | O=C1Nc2nc(-c3c(O)cccc3F)cc(C3CCCNC3)c2CO1 (stereo not shown) [Example 18-07]
18 | 500 to 2000 nM | CCC(=O)NCc1c(C2CCCNC2)cc(-c2ccccc2O)nc1N (stereo not shown) [Example 23-06]
19 | < 500 nM | CCCOc1cccc(O)c1-c1cc(C2CCCNC2)c(CO)c(N)n1 (stereo not shown) [Example 12-03]

From patent US6984649B1, “Pyridine derivatives” (Bayer Aktiengesellschaft, priority 2000, dated 2006)
